Source: patent US11058661B2, “Compositions and methods for lowering triglycerides in a subject on concomitant statin therapy and having hsCRP levels of at least about 2 mg/L” (priority 2018, dated 2021)

Experiment: AAMI pilot study: essential fatty acids in plasma and RBC
Format: in vivo, human
Description: Blood samples (10 mL) were collected at Visit 1 (screening) and at Visits 4, 5 and 6. Analysis was performed by MSR Lipid Analysis, Scottish Crop Research Institute, Dundee, UK. The screening sample acted as baseline for the EFA measurements. Lipid was extracted from plasma, serum and RBC suspensions and converted into fatty acid methyl esters which were analyzed by gas chromatography to give fatty acid profiles as micrograms fatty acid per gram of sample (μgFA/g) and normalized area percent. RBC and plasma EFA data were collected at baseline, Day 14, 28 and 42 and summarized by visit for each treatment group. Change from baseline and percent change from baseline were also summarized. ANCOVA comparison of ethyl-EPA dose groups and ethyl-EPA versus placebo was performed.

**Q.** For `CC/C=C\C/C=C\C/C=C\C/C=C\C/C=C\CCCC(=O)OCC` [Icosapent Ethyl, ethyl eicosapentaenoate], which “DHA LS Mean, 1 g versus 4 g” value (RBC) is on record?
**A.** 1.0 µg/g

**Q.** What about the “DHA LS Mean, 2 g versus 4 g” value (RBC) of the same compound?
**A.** 1.0 µg/g

**Q.** And the “DPAn-3 LS Mean, 1 g versus 4 g” value (RBC)?
**A.** -6.2 µg/g

**Q.** What about the “DPAn-3 LS Mean, 2 g versus 4 g” value (RBC) of the same compound?
**A.** -2.5 µg/g

**Q.** What about the “AA Mean (SD) change from Baseline” value (RBC, Day 14, 1 g) of the same compound?
**A.** −8.1 (21.95) μg/g

**Q.** And the “DGLA Mean (SD) change from Baseline” value (RBC, Day 14, 1 g)?
**A.** −2.7 (3.82) μg/g

**Q.** What about the “DHA Mean (SD) change from Baseline” value (RBC, Day 14, 1 g) of the same compound?
**A.** −4.6 (9.76) μg/g

**Q.** What about the “DPAn-3 Mean (SD) change from Baseline” value (RBC, Day 14, 1 g) of the same compound?
**A.** 0.9 (5.03) μg/g

**Q.** What about the “EPA/AA Mean (SD) change from Baseline” value (RBC, Day 14, 1 g) of the same compound?
**A.** 0.1 (0.04) μg/g

**Q.** And the “AA Mean (SD) change from Baseline” value (RBC, Day 14, 2 g)?
**A.** −3.1 (25.84) μg/g

**Q.** And the “DGLA Mean (SD) change from Baseline” value (RBC, Day 14, 2 g)?
**A.** −2.6 (3.54) μg/g

**Q.** And the “DHA Mean (SD) change from Baseline” value (RBC, Day 14, 2 g)?
**A.** −2.0 (9.46) μg/g

**Q.** What about the “DPAn-3 Mean (SD) change from Baseline” value (RBC, Day 14, 2 g) of the same compound?
**A.** 5.6 (6.28) μg/g

**Q.** And the “EPA/AA Mean (SD) change from Baseline” value (RBC, Day 14, 2 g)?
**A.** 0.2 (0.04) μg/g

**Q.** And the “DGLA Mean (SD) change from Baseline” value (RBC, Day 14, 4 g)?
**A.** −5.3 (4.10) μg/g

**Q.** And the “DHA Mean (SD) change from Baseline” value (RBC, Day 14, 4 g)?
**A.** −6.9 (9.13) μg/g

**Q.** What about the “DPAn-3 Mean (SD) change from Baseline” value (RBC, Day 14, 4 g) of the same compound?
**A.** 5.4 (5.38) μg/g

**Q.** What about the “EPA/AA Mean (SD) change from Baseline” value (RBC, Day 14, 4 g) of the same compound?
**A.** 0.3 (0.07) μg/g

**Q.** And the “AA Mean (SD) change from Baseline” value (RBC, Day 28, 1 g)?
**A.** −17.0 (20.69) μg/g

**Q.** And the “DGLA Mean (SD) change from Baseline” value (RBC, Day 28, 1 g)?
**A.** −3.8 (3.31) μg/g

**Q.** What about the “DHA Mean (SD) change from Baseline” value (RBC, Day 28, 1 g) of the same compound?
**A.** −6.4 (11.57) μg/g

**Q.** And the “DPAn-3 Mean (SD) change from Baseline” value (RBC, Day 28, 1 g)?
**A.** 3.3 (5.42) μg/g

**Q.** What about the “EPA/AA Mean (SD) change from Baseline” value (RBC, Day 28, 1 g) of the same compound?
**A.** 0.1 (0.05) μg/g

**Q.** What about the “DGLA Mean (SD) change from Baseline” value (RBC, Day 28, 2 g) of the same compound?
**A.** −4.5 (3.58) μg/g

**Q.** What about the “DHA Mean (SD) change from Baseline” value (RBC, Day 28, 2 g) of the same compound?
**A.** −6.2 (9.34) μg/g

**Q.** What about the “DPAn-3 Mean (SD) change from Baseline” value (RBC, Day 28, 2 g) of the same compound?
**A.** 9.4 (6.74) μg/g

**Q.** What about the “EPA/AA Mean (SD) change from Baseline” value (RBC, Day 28, 2 g) of the same compound?
**A.** 0.02 (0.06) μg/g

**Q.** What about the “DGLA Mean (SD) change from Baseline” value (RBC, Day 28, 4 g) of the same compound?
**A.** −7.1 (4.63) μg/g

**Q.** And the “DHA Mean (SD) change from Baseline” value (RBC, Day 28, 4 g)?
**A.** −8.7 (11.63) μg/g

**Q.** What about the “EPA/AA Mean (SD) change from Baseline” value (RBC, Day 28, 4 g) of the same compound?
**A.** 0.4 (0.11) μg/g

**Q.** And the “DGLA Mean (SD) change from Baseline” value (RBC, Day 42, 1 g)?
**A.** −3.5 (4.51) μg/g

**Q.** What about the “DHA Mean (SD) change from Baseline” value (RBC, Day 42, 1 g) of the same compound?
**A.** −7.0 (12.20) μg/g

**Q.** What about the “DPAn-3 Mean (SD) change from Baseline” value (RBC, Day 42, 1 g) of the same compound?
**A.** 6.5 (6.19) μg/g

**Q.** And the “EPA/AA Mean (SD) change from Baseline” value (RBC, Day 42, 1 g)?
**A.** 0.1 (0.06) μg/g

**Q.** And the “DGLA Mean (SD) change from Baseline” value (RBC, Day 42, 2 g)?
**A.** −5.3 (3.65) μg/g

**Q.** And the “DHA Mean (SD) change from Baseline” value (RBC, Day 42, 2 g)?
**A.** −6.3 (9.42) μg/g

**Q.** And the “EPA/AA Mean (SD) change from Baseline” value (RBC, Day 42, 2 g)?
**A.** 0.3 (0.06) μg/g

**Q.** What about the “DGLA Mean (SD) change from Baseline” value (RBC, Day 42, 4 g) of the same compound?
**A.** −8.0 (4.98) μg/g

**Q.** What about the “EPA/AA Mean (SD) change from Baseline” value (RBC, Day 42, 4 g) of the same compound?
**A.** 0.4 (0.14) μg/g

**Q.** What about the “DPAn-3 LS Mean, 2 g versus 4 g” value (plasma) of the same compound?
**A.** -9.5 µg/g

**Q.** And the “EPA values, change from baseline” value (plasma and RBC, to Day 42, 1, 2 and 4 g groups)?
**A.** increased substantially from baseline

**Q.** And the “AA Mean (SD) change from Baseline” value (plasma, Day 14, 1 g)?
**A.** −9.7 (22.20) μg/g

**Q.** And the “DHA Mean (SD) change from Baseline” value (plasma, Day 14, 1 g)?
**A.** −6.4 (13.30) μg/g

**Q.** What about the “DPAn-3 Mean (SD) change from Baseline” value (plasma, Day 14, 1 g) of the same compound?
**A.** 7.5 (5.11) μg/g

**Q.** What about the “EPA/AA Mean (SD) change from Baseline” value (plasma, Day 14, 1 g) of the same compound?
**A.** 0.3 (0.4) μg/g

**Q.** What about the “DHA Mean (SD) change from Baseline” value (plasma, Day 14, 2 g) of the same compound?
**A.** −5.4 (14.29) μg/g

**Q.** What about the “EPA/AA Mean (SD) change from Baseline” value (plasma, Day 14, 2 g) of the same compound?
**A.** 0.6 (0.23) μg/g

**Q.** And the “EPA/AA Mean (SD) change from Baseline” value (plasma, Day 14, 4 g)?
**A.** 1.1 (0.28) μg/g

**Q.** And the “DHA Mean (SD) change from Baseline” value (plasma, Day 28, 1 g)?
**A.** −6.6 (15.53) μg/g

**Q.** And the “DPAn-3 Mean (SD) change from Baseline” value (plasma, Day 28, 1 g)?
**A.** 3.9 (5.62) μg/g

**Q.** What about the “EPA/AA Mean (SD) change from Baseline” value (plasma, Day 28, 1 g) of the same compound?
**A.** 0.3 (0.20) μg/g

**Q.** What about the “DHA Mean (SD) change from Baseline” value (plasma, Day 28, 2 g) of the same compound?
**A.** −8.1 (15.82) μg/g

**Q.** And the “EPA/AA Mean (SD) change from Baseline” value (plasma, Day 28, 2 g)?
**A.** 0.8 (0.35) μg/g

**Q.** And the “EPA/AA Mean (SD) change from Baseline” value (plasma, Day 28, 4 g)?
**A.** 1.3 (0.42) μg/g

**Q.** And the “AA Mean (SD) change from Baseline” value (plasma, Day 42, 1 g)?
**A.** −8.7 (31.35) μg/g

**Q.** And the “DGLA Mean (SD) change from Baseline” value (plasma, Day 42, 1 g)?
**A.** −9.4 (9.41) μg/g

**Q.** What about the “DHA Mean (SD) change from Baseline” value (plasma, Day 42, 1 g) of the same compound?
**A.** −5.4 (18.17) μg/g

**Q.** And the “EPA/AA Mean (SD) change from Baseline” value (plasma, Day 42, 1 g)?
**A.** 0.3 (0.24) μg/g

**Q.** And the “DHA Mean (SD) change from Baseline” value (plasma, Day 42, 2 g)?
**A.** −6.0 (16.69) μg/g

**Q.** And the “EPA/AA Mean (SD) change from Baseline” value (plasma, Day 42, 2 g)?
**A.** 0.7 (0.29) μg/g

**Q.** What about the “DPAn-3 Mean (SD) change from Baseline” value (plasma, Day 42, 4 g) of the same compound?
**A.** 32.0 (16.01) μg/g

**Q.** And the “EPA/AA Mean (SD) change from Baseline” value (plasma, Day 42, 4 g)?
**A.** 1.3 (0.45) μg/g
